Measurements: ChEMBL document CHEMBL1151054, “Fungal metabolite of naftazone inhibits nitrite production by activated murine macrophages” (Bioorg Med Chem Lett, 1995)

How the values were obtained:
[1] = target: T1, Nitric oxide synthase, inducible (Mus musculus, UniProt P29477); assay: Compound was tested for inhibition of inducible Nitric oxide synthase in activated murine macrophages.
T1 sequence (P29477 whole entry): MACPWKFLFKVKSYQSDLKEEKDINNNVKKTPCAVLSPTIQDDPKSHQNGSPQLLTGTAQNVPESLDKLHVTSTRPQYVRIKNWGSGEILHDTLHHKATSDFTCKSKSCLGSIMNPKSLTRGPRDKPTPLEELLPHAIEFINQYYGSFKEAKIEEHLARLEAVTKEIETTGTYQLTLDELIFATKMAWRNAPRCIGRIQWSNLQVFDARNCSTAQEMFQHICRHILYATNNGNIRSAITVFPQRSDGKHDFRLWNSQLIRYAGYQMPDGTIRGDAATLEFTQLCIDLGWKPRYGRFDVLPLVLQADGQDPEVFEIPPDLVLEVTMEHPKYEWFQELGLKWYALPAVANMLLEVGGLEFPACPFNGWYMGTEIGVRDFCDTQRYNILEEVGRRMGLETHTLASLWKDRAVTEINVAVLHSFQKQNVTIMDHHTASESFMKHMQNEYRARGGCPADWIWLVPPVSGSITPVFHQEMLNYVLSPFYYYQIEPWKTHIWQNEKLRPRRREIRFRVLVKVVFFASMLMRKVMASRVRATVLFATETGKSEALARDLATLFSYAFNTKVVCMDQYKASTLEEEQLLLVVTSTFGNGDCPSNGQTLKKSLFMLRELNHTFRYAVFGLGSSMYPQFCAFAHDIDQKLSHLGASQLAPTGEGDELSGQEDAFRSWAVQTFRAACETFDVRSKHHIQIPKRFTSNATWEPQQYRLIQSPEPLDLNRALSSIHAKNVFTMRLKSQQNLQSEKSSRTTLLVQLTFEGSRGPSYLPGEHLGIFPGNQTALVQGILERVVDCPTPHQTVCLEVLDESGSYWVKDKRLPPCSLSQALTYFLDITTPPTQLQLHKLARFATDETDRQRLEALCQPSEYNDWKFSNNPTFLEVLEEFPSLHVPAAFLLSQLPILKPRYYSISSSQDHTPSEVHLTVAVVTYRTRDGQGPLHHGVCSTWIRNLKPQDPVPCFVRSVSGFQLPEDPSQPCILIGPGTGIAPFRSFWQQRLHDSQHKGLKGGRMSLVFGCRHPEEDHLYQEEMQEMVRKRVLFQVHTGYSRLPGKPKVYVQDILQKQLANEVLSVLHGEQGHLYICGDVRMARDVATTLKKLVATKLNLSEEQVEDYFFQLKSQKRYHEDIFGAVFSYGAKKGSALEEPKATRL

[2] = Compound was tested for inhibition of constitutive bovine brain Nitric oxide synthase; format: tissue-based

SMILES	IC50 [1] [µM]	IC50 [2] [µM]
c1ccc(-n2ccnc2)cc1	8	
O=c1nnc2ccc3c(c2[nH]1)=CCCC=3	50	
O=[N+]([O-])c1ccc2cn[nH]c2c1	20	2.5
